Measurements taken from patent publication US11602510B2, “Agent for use in the treatment of dyslipidemia” (Flexopharm Brain GMBH & Co. KG, priority 2017, dated 2023).
Entries after “also recorded” stand apart in the source; their conditions may differ. Read-outs that look alike come from different tables or passages of the source.

Columns and labels:
HMG-CoA synthase = HMG-CoA synthase mRNA expression by reverse transcriptase-polymerase chain reaction; format: in vivo; conditions: RT-PCR, FIG. 5
LDL receptor = LDL receptor expression by reverse transcriptase-polymerase chain reaction in the liver; format: in vivo; conditions: RT-PCR in the liver following treatment, FIG. 8
PCSK9 = PCSK9 expression by reverse transcriptase-polymerase chain reaction; format: in vivo; conditions: RT-PCR, FIG. 7
[1] = system: hypercholesterolemic mouse model; assay: LDL cholesterol in the hypercholesterolemic mouse model (high fat diet); format: in vivo
Source text: HF: High Fat (60 KJ % fat content); PA: Propionic Acid. […] HFD: High Fat Diet; PA: Propionic Acid.

[2] = system: patients whose LDL cholesterol level had been adjusted to a stable level by atorvastatin; assay: Patient study: propionate added to stable atorvastatin treatment, LDL value; format: in vivo, human; conditions: for LDL value / LDL cholesterol level (in words): 2×500 mg propionate for more than eight weeks in addition to atorvastatin, five patients, FIG. 9
Protocol: The decrease appears to be greatest in patients showing the highest initial LDL value,
FIG. 10 is a block diagram showing the result of a patient study. On the left, the diagram indicates the averaged initial value of the patients stable through administration of atorvastatin, on the right the averaged LDL value of the patients after taking 2×500 mg of propionate daily for at least eight weeks.
The patient study attests to the positive influence of 2×500 mg of sodium propionate in addition to atorvastatin.

pigs = conditions: comparatively higher doses; cited from earlier work
patients = conditions: high doses, cited from earlier work
HMG-CoA reductase = HMG-CoA reductase expression by reverse transcriptase-polymerase chain reaction; format: in vivo; conditions: RT-PCR, FIG. 6
[3] = system: patients with dyslipidemia; assay: LDL cholesterol in patients with dyslipidemia treated with propionic acid; format: in vivo, human; conditions: n=24, initial LDL cholesterol >110 mg/dl, after 2-6 months of treatment, FIG. 4
rats = conditions: oral and rectal administration of high doses; cited from earlier work
[4] = system: rats with normal and cholesterol-rich diets; conditions: cited from earlier work

CC(C)c1c(C(=O)Nc2ccccc2)c(-c2ccccc2)c(-c2ccc(F)cc2)n1CC[C@@H](O)C[C@@H](O)CC(=O)O [atorvastatin, reference compound]
expression of HMG-CoA synthase at mRNA level (HMG-CoA synthase): but not by atorvastatin | expression of the LDL receptor (LDL receptor): Neither the propionic acid nor the atorvastatin has an effect | expression of PCSK9 (PCSK9): increased expression; also recorded: increase in PCSK9 expression

CCC(=O)O [propionic acid, Propionic acid]
expression of HMG-CoA synthase at mRNA level (HMG-CoA synthase): negatively regulated; also recorded: reduced expression | expression of HMG-CoA synthase at mRNA level (HMG-CoA synthase; listed as Propionate): significantly down-regulated; also recorded: much more pronounced than that of atorvastatin | LDL cholesterol ([1]; propionate alone, High Fat (60 KJ % fat content), FIG. 2): reduction of LDL cholesterol | LDL cholesterol ([1]; propionic acid additionally administered to atorvastatin, High Fat Diet, FIG. 3): trend towards further reduction of LDL cholesterol | reduction of the LDL value on average ([2]; 2×500 mg propionate daily for at least eight weeks on top of stable atorvastatin, FIG. 10): ~40% | LDL value / LDL cholesterol level (in words) [2]: the LDL value was reduced | cholesterol concentration in back fat (pigs): significantly higher cholesterol concentration | cholesterol content in the liver (pigs): slight increase | total cholesterol (pigs): reduced total cholesterol | serum cholesterol level (patients; one case): slight reduction | HDL serum cholesterol concentration (patients; second case): increased | expression of HMG-CoA reductase (HMG-CoA reductase): negatively regulated; also recorded: reduced expression | expression of HMG-CoA reductase (HMG-CoA reductase; listed as Propionate): significantly down-regulated | cholesterol-lowering effect (LDL cholesterol) [3]: cholesterol-lowering effect | expression of the LDL receptor (LDL receptor): Neither the propionic acid nor the atorvastatin has an effect | expression of PCSK9 (PCSK9): no influence | expression of PCSK9 (PCSK9; listed as Propionates): do not have an effect

CCC(=O)[O-].[Na+] [sodium propionate]
liver cholesterol levels (rats): only insignificantly | LDL value / LDL cholesterol level (in words) [2]: further significantly reduced | total cholesterol ([4]; rats consuming cholesterol-rich food, about 100 mg per day): significant reduction in total cholesterol | total cholesterol ([4]; rats fed a normal diet): practically no effect
